Holding throughout (test): inhibition of tumour cell growth, NCI panel, 48 h
Test [1] concerns M14.
Test [2] deals with SK-MEL-5.
Test [3] deals with UACC-257.
Test [4] relates to OVCAR-3.
Test [5] deals with HCC 2998.
For test [6], the system named is COLO 205.
In test [7] the test system is SF-268.
Test [8] has as its system KM12.
Test [9] concerns HCT-116.
For test [10], the system named is SN12C.
Test [11] relates to U-251.
For test [12], the system named is A498.
The test system of test [13] is CAKI-1.
Test [14] concerns HOP-62.
The test system of test [15] is DU-145.
Test [16] has as its system HT-29.
Test [17] relates to K562.
Test [18] has as its system NCI-H460.
The test system of test [19] is HCT-15.
Test [20] has as its system HOP-92.

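Briefly, cells in 96-well plates were exposed to five compound concentrations for 48 h, and endpoints were estimated by linear interpolation. GI50 = concentration required for 50% inhibition of growth.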 The source made the active and inactive calls. Rule as the data show it: active = GI50 up to about 1.1 µM and inactive = higher. Some results are limits rather than exact numbers.

On to `CC(C)=NNc1snnc1C(N)=O`, for which the GI50 in test [1], in [2], in [3], in [4], in [5] and in test [6] was > 100 µM (inactive) throughout. Moreover, the GI50 in test [7], in test [8], in test [9], in [10], in [11] and in [12] was > 100 µM (inactive) each time. Also, the GI50 in test [13], in test [14], in test [15], in test [16] and in test [17] was > 100 µM (inactive) in each case.

For `O=c1cc(NNc2ccc(F)cc2)[nH]c(=O)[nH]1`, the GI50 in [1] is 8.85 µM (inactive); in test [2] it was 25.7 µM (inactive); in [18] it was 19.4 µM (inactive); in [3], > 100 µM (inactive); in test [4] it was 16.4 µM (inactive); in test [5] it was 23.4 µM (inactive). Also, the GI50 in test [6] was 16.5 µM (inactive); in test [7], 20 µM (inactive); in [8] it was 11.7 µM (inactive); in [9] it was 17.9 µM (inactive); in [10] it was 18.2 µM (inactive); in test [11], 25.6 µM (inactive). The GI50 was 35.3 µM (inactive) in [12]; 17.1 µM (inactive) in test [14]; 16.1 µM in test [19]; > 100 µM (inactive) in test [15]; 16.9 µM (inactive) in test [16]; 17.8 µM (inactive) in [17].

Take `OCCN(C1=NCCN1)/[N+](=C/c1ccccc1O)[CH-]c1ccccc1O`: the GI50 in test [1], in [2], in test [18], in [3], in [4] and in test [5] was > 100 µM (inactive) throughout. Besides, the GI50 in test [6], in test [7], in [8], in [9], in test [10] and in [11] was > 100 µM (inactive) each time. The GI50 in [12] was > 100 µM (inactive); in test [13], > 100 µM (inactive); in test [14] it was > 100 µM (inactive); in [19], 51.5 µM; in [15], > 100 µM (inactive); in test [16], > 100 µM (inactive). Moreover, in test [17], the GI50 was > 100 µM (inactive).

On to `OC(CN1CCCCC1)c1ccc(/C=C/c2ccc(Cl)cc2)cc1` (centres undefined), for which the GI50 in test [1] is 19.9 µM (inactive); in test [2], 22.3 µM (inactive); in test [18] it was 54.6 µM (inactive); in [3], 21.6 µM (inactive); in test [4] it was 89.1 µM (inactive); in [5] it was 46 µM (inactive). The GI50 in test [6] was 16.7 µM (inactive); in test [7], > 100 µM (inactive); in test [8] it was 17.2 µM (inactive); in [9], 38.9 µM (inactive); in test [10], > 100 µM (inactive); in [20] it was 50.6 µM (inactive). Further, the GI50 in test [11] is > 100 µM (inactive); in test [12], 40 µM (inactive); in test [14] it was 94.8 µM (inactive); in test [19], 25.2 µM; in test [15], > 100 µM (inactive); in test [16], 12 µM (inactive). In addition, the GI50 in [17] was 37.3 µM (inactive).

Turning to `C=CC[C@]1(/C=N/O)CN(S(=O)(=O)CC[Si](C)(C)C)C[C@H]2CC=CC[C@H]21`, the GI50 in [1] is 20.2 µM (inactive); in test [2] it was 29.4 µM (inactive); in test [18], 18.4 µM (inactive); in test [3], 21.2 µM (inactive); in test [5], 16.7 µM (inactive); in [6] it was 17.3 µM (inactive). In addition, the GI50 in test [7] was 32.9 µM (inactive); in [8] it was 24.6 µM (inactive); in [9] it was 14.2 µM (inactive); in [10] it was 16.2 µM (inactive); in [11], 17.7 µM (inactive); in test [12] it was 17.7 µM (inactive). Also, the GI50 in [13] was 17.1 µM (inactive); in test [14], 20 µM (inactive); in test [19], 38.4 µM; in test [15] it was 20.6 µM (inactive); in test [16], 16.2 µM (inactive); in test [17] it was 18.4 µM (inactive).

In the case of `CC(C)c1c(P(=O)(c2ccccc2)c2ccccc2)n(C)c2ccccc12`, the GI50 in [1] was 64.4 µM (inactive); in [18], 66.8 µM (inactive); in test [3], 90.6 µM (inactive); in test [4], 26.4 µM (inactive); in test [5], > 100 µM (inactive); in test [6], 32.4 µM (inactive). Also, the GI50 in test [7] was 51.9 µM (inactive); in [8] it was 51.8 µM (inactive); in [9] it was 35.9 µM (inactive); in test [10] it was > 100 µM (inactive); in test [20] it was > 100 µM (inactive); in [11], 97.3 µM (inactive). Further, the GI50 in test [12] was > 100 µM (inactive); in test [14] it was > 100 µM (inactive); in test [19], 72.3 µM; in [15] it was 80.2 µM (inactive); in test [16] it was 53.8 µM (inactive); in [17], 37.8 µM (inactive).

As for `Oc1ccc2cc(Br)ccc2c1-c1c(O)ccc2ccc(Br)cc12`, the GI50 in [1] was 17.8 µM (inactive); in [2] it was 23 µM (inactive); in [18], 4.12 µM (inactive); in [3], 18.5 µM (inactive); in test [4], 13.9 µM (inactive); in [5], 6.52 µM (inactive). Moreover, the GI50 is 13.6 µM (inactive) in test [6]; 20 µM (inactive) in test [7]; 6.84 µM (inactive) in test [8]; 14.4 µM (inactive) in test [9]; 12 µM (inactive) in test [10]; 14.1 µM (inactive) in test [11]. In addition, the GI50 is 17.3 µM (inactive) in test [12]; 18.8 µM (inactive) in test [13]; 14.7 µM (inactive) in [14]; 14.9 µM in test [19]; 15.8 µM (inactive) in test [15]; 3.07 µM (inactive) in [16]. Besides, in [17], the GI50 is 18.5 µM (inactive).

Take `CN1C2CCC1CC(=CCOC(c1ccc(F)cc1)c1ccc(F)cc1)C2`: the GI50 is 16.4 µM (inactive) in [1]; 10.3 µM (inactive) in test [2]; 17.2 µM (inactive) in test [18]; 16.1 µM (inactive) in test [3]; 17 µM (inactive) in [4]; 4 µM (inactive) in [5]. Further, the GI50 in test [6] was 11 µM (inactive); in [7], 12.9 µM (inactive); in test [8], 15 µM (inactive); in [9], 11.8 µM (inactive); in test [10] it was 17.3 µM (inactive); in [11], 17.2 µM (inactive). In addition, the GI50 in test [12] is 14.7 µM (inactive); in test [13] it was 16.4 µM (inactive); in test [14], 17.7 µM (inactive); in test [19] it was 15.7 µM; in test [15] it was 16.9 µM (inactive); in test [16], 5.21 µM (inactive). For the same molecule, the GI50 in [17] was 5.94 µM (inactive).

In the case of `COc1ccc(-c2c(C(C)=O)c(-c3ccccc3)n(C3OC(CO)C(O)C(O)C3O)c(=S)c2C#N)cc1` (centres undefined), the GI50 in test [1], in test [2], in test [18], in [3], in [4] and in test [5] was > 100 µM (inactive) each time. Moreover, the GI50 in test [6], in test [7], in [8], in [9], in test [10] and in test [11] was > 100 µM (inactive) each time. In addition, the GI50 was > 100 µM (inactive) in test [12]; > 100 µM (inactive) in test [13]; > 100 µM (inactive) in test [14]; above 100 µM in test [19]; > 100 µM (inactive) in test [15]; > 100 µM (inactive) in test [16]. In test [17], the GI50 is > 100 µM (inactive).

Regarding `N#CC(C#N)/N=N/c1ccc(-c2nc3ccccc3[nH]2)cc1`, the GI50 is 20.8 µM (inactive) in test [1]; 35.6 µM (inactive) in [2]; 94.6 µM (inactive) in test [18]; 14.9 µM (inactive) in test [3]; 13.8 µM (inactive) in test [4]; 7.57 µM (inactive) in test [6]. Further, the GI50 in [7] was 28.2 µM (inactive); in test [8] it was 59.2 µM (inactive); in test [9] it was 15.4 µM (inactive); in test [10], > 100 µM (inactive); in [20], 22.5 µM (inactive); in test [11], 28.1 µM (inactive). For the same molecule, the GI50 in test [12] is > 100 µM (inactive); in test [13], 24.5 µM (inactive); in test [14], > 100 µM (inactive); in test [19], 21.7 µM; in [15] it was 16.4 µM (inactive); in [16] it was 28.7 µM (inactive). Also, in [17], the GI50 was 19.6 µM (inactive).

Regarding `O=NN(CCCl)C(=O)NC1CCCCC1` [LOMUSTINE], the GI50 in test [1] was 41 µM (inactive); in test [2] it was 54.7 µM (inactive); in test [18], 36.1 µM (inactive); in [3], 54.2 µM (inactive); in test [4], 66.2 µM (inactive); in test [5], 56 µM (inactive). In addition, the GI50 in [6] is 41.2 µM (inactive); in [7], 24.5 µM (inactive); in test [8], 71.4 µM (inactive); in [9], 38.8 µM (inactive); in [10], 46.6 µM (inactive); in test [20], 31.3 µM (inactive). Further, the GI50 in test [11] is 31.6 µM (inactive); in [12], 74.3 µM (inactive); in test [14], 61.7 µM (inactive); in test [19], 29.9 µM; in test [15], 42.1 µM (inactive); in [16], 53.8 µM (inactive). Moreover, the GI50 in test [17] is 22 µM (inactive).
